Data as given in US20250090510A1, “eIF4G1-eIF1 INHIBITORS AND USE THEREOF” (YEDA RESEARCH AND DEVELOPMENT CO. LTD., priority 2022, published 2025).

Test system: HEK293T cells
Experiment: Polysome fractionation and real-time PCR of specific genes
Format: cell-based, human
Conditions: 3 h
Protocol: FIGS. 5A-D: 5′UTR length-dependent translational control by the eIF1-eIF4G1. […] The asterisks denote a statistically significant difference. **p<0.01, ****p<0.0001. (5B) A scheme of the firefly reporter genes that are driven by long (354 nt) and short (111 nt) 5′ UTR length, is shown on the top. HEK293T cells were transfected with these reporter genes. After 4 h, transfected cells were treated with DMSO, i14G1-10 (5 μM), or i14G1-12 (5 μM) for 16 h and analyzed for firefly luciferase activities. The graph presents the normalized luminescence activity of the long 5′UTR and the short 5′UTR reporters in the indicated treatments. The data are shown as mean±SEM, n=6. The asterisks denote statistically significant difference compared to DMSO, according to Student's t-tests (one-tailed, paired). *p<0.05; **p<0.01. (5C-D) HEK293T cells were treated with DMSO, i14G1-10, and i14G1-12 for 3 h, lysed, and subjected to sucrose gradient sedimentation and fractionation. Fractions were pooled according to polysome profile as free (grey), light (blue), and heavy (yellow) polysomal fractions. cDNA was prepared from each fraction pool and real-time PCR was performed for the indicated TISU genes (5C) or histone genes (5D). The data are shown as mean±SEM, n=3. The asterisks denote statistically significant difference compared to DMSO, according to Student's t-tests (one-tailed, paired), *p<0.05; **p<0.01.
FIGS. 7A-E: (7A) Ribo-seq and TI-seq read tracks of representative stress response-associated mRNAs (DDIT3 and GADD34) in DMSO (black), i14G1-10 (red), and i14G1-12 (green) samples. The red triangle represents 5′UTR TIS codons and the green denotes annotated TIS. Black arrows show the translation direction. […] The graphs in the lower panel are the quantification of ATF4's uORF1′, uORF1, uORF2, and main-ORF reads of the Ribo-seq data. The asterisks denote statistically significant difference compared to DMSO, according to Student's t-tests (one-tailed, paired). **p<0.01, ***p<0.001, ****p<0.0001. (7C) HEK293T cells were treated with DMSO, i14G1-10, and i14G1-12 for 3 h, lysed and subjected to sucrose gradient sedimentation and fractionation. Fractions of the free (grey), light (blue), and heavy (yellow) were pooled. cDNA was prepared from each fraction pool and real-time PCR was performed for the indicated ISR genes. The data are shown as mean±SEM, n=3. The asterisks denote statistically significant difference compared to DMSO, according to Student's t-tests (one-tailed, paired). *p<0.05; **p<0.01. (7D) HEK293T cells were treated with DMSO, i14G1-10, and i14G1-12 for 3 h. The respective cell lysates were subjected to western blot to check the protein levels of ATF3 and ATF4 (left). The graph represents the relative chemiluminescence signal intensity (mean±SEM) for ATF4 and AT3 normalized to GAPDH protein levels of three biological replicates. The asterisks denote statistically significant difference compared to DMSO, according to Student's t-tests (one-tailed, paired), *p<0.05. (7E) Control MEFs and eIF2α S52A mutant MEFs were treated with DMSO (vehicle control), and sub-cytotoxic concentrations of i14G1-10 (30 μM) and i14G1-12 (15 μM) for 3h. Cell lysates were then subjected to sucrose gradient sedimentation to obtain polysome profiles.
Polysome profile and real-time PCR. HEK293T cells were cultured in 10 cm plate up to 80% confluence, followed by DMSO, i14G1-10 (20 μM), and i14G1-12 (10 μM) treatment. After 3 h, the cells were incubated with 100 μg/ml cycloheximide for 5 minutes, washed with cold polysome buffer (20 mM Tris pH8, 140 mM KCl, 5 mM MgCl2, and 100 μg/ml cycloheximide). Cells were collected in 500-μl polysome buffer supplemented with 0.5% Triton, 0.5% DOC, 1.5 mM DTT, 150 units RNase inhibitor, and 5-μl protease inhibitor cocktail. Lysed samples were centrifuged at 12000 RPM, 5 minutes at 4° C. The cleared lysate was loaded onto sucrose density gradient (10-50%) and centrifuged at 38000 RPM for 105 minutes at 4° C. […]

SMILES | translation of ACTB mRNA (control) in polysome fractions | translation of eight histone genes in polysome fractions | translation of seven TISU genes in polysome fractions | translation of stress-response genes in Free, Light and Heavy polysome fractions
O=C(/C=C/Sc1ccc(C(F)(F)F)cn1)c1ccccc1 [i14G1-10] | decreased translation of the ACTB mRNA | general trend of upregulation | either unaffected or slightly upregulated | all found to be upregulated
Cn1ccnc1S/C(=C/C=C(C#N)C#N)c1ccc(Cl)cc1 [i14G1-12] | decreased translation of the ACTB mRNA | general trend of upregulation | either unaffected or slightly upregulated | all found to be upregulated
